Six molecules from patent US20210221867A1, “Compounds Capable of Binding to Melanocortin 4 Receptor” (Novo Nordisk A/S, priority 2018, published 2021) can be followed below.

In assay [1] the target is T1, human MC1R (Homo sapiens, UniProt Q01726).
T1 construct: expressed in transfected cells
Description: Functional human melanocortin receptor 1 assay (cAMP, HTRF). Conditions: cAMP induction, BHK cells expressing the human MC1 receptor, 30 min, 25° C. Format: cell-based. As for the experimental part:
(§1) In order to assess the potency of the compounds on human MC1R and human MC4R cAMP signalling was measured.
(§2) cAMP induction was measured by c-AMPdynamic2 assay, HTRF 62AM4PEC system from CisBio for the human MC1R and human MC4R according to the protocol provided by the vendor. BHK cells expressing the human MC1 or MC4 receptor were generated by stable transfection with expression vectors encoding the cDNA of either MC1R or MC4R. In details; 25 μl compound—or standard solution were added in the respective wells.
(§3) Compound was reconstituted in buffer (DMEM w/o phenol red, 10 mM Hepes, lx Glutamine, 0.1% OV-albumin1, 1 mM IBMX) and serially diluted starting at 2 μM, 10-fold seven times. Dilutions were carried out in the same aforementioned buffer to the desired working concentration ranges (2× higher than the final concentration). 25 μl cell solution was then added and allowed to incubate for 30 min while lightly shaking, at 25° C. […] The provided components for the assay were reconstituted according to the CisBio assay protocol “3.1 supplied reagents and preparation procedure” in MilliQ purification system H2O and diluted 1:20 in lysis buffer. 25 μl cAMP-d2 and 25 μl Cryptate conjugate were added to all wells. Plates were centrifuged at 1500 rpm for 30 sec and incubated for 1 h, lightly shaking, at 25° C. in a hotel stacker. The plates were read on Mithras LB 940 provided by Berthold Technologies
(§4) The data were analysed by non-linear regression analysis of binding curves, using the Windows™ program GraphPad™ Prism (GraphPad Software, USA). EC50 is a measure of the potency of a given compound and is defined herein as the half maximal effective concentration of the compound which induces a response (cAMP induction) halfway between the baseline and maximum response value after a fixed reaction time. Data listed as >, indicate that the highest concentration tested had no effect, where “no effect” is defined as the highest compound concentration with agonistic effect 5% of maximal response of the reference compound NDP-alpha-MSH. […]
For orientation: In TR-FRET formats the signal depends on donor and acceptor labels being close together.

Assay [2] has as its target T1, human MC1R. The assay is described as follows: MC1 receptor binding assay (SPA, 125I-NDP-α-MSH). Conditions: displacement of 125I-NDP-α-MSH, membranes from BHK cells stably expressing the human MC1 receptor, read-out: MC1R binding IC50. How it is done: In Vitro ^125I-NDP-α-MSH Binding to Recombinant BHK Cells Stably Expressing the Human MC1 Receptor (SPA Binding Assay).
In order to assess the binding affinity of the selected compounds for the human MC1R, competitive binding assays were performed with radiolabelled NDP-alpha MSH (^125I-NDP-α-MSH) and membranes from BHK cells stably expressing the human MC1 receptor.
(§5) The BHK cell membranes are prepared from frozen or fresh cells that are homogenised in ice cold buffer (20 mM HEPES, 5 mM MgCl2, 1 mg/ml Bacitracin, pH 7.1 and one Complete™ Protease Inhibitor Cocktail Tablet per 25 ml (Catalogue number 05 056 489 001 from Roche-applied-science)) and centrifuged at 25000 g at 4° C. for 10 minutes. The supernatant is discarded, and the pellets are re-suspended in the buffer, and then homogenised and centrifuged two more times. The pellets are pooled, and the final pellet is re-suspended in buffer, aliquoted and subsequently stored at −80° C.
(§6) The SPA Binding assay was performed in 96-well white opaque plates. Each well contained: 0.5 mg PVT-WGA SPA beads, MC1 receptor expressing membrane diluted to give approximately 10% specific tracer binding, 50.000 dpm ^125I-NDP-α-MSH and relevant dilutions of test compound. The final volume in each well was 200 μl. Assay buffer was 25 mM HEPES, pH 7.0, containing 1.5 mM CaCl2, 1 mM MgSO4, 0.21% (w/v) ovalbumin, 1 mM 1,10-Phenanthroline and one Complete™ Protease Inhibitor Cocktail Tablet per 100 ml. Plates were incubated overnight (22-24 hours) at room temperature before counting for 2 minutes per well, using a TopCount NXT scintillation counter. Displacement of radio ligand is measured as reduction in light emission from SPA beads, and IC50 values are calculated by nonlinear regression analysis of sigmoidal dose-response curves in GraphPad Prism (GraphPad Software, La Jolla, Calif., USA).
(In a radioligand displacement assay an active substance lowers the binding of a labelled ligand.)

For assay [3], the target named is T2, human MC4R (Homo sapiens, UniProt P32245).
T2 construct: expressed in transfected cells
The assay is described as follows: MC4 receptor binding assay (SPA, 125I-NDP-α-MSH). The settings on record: displacement of 125I-NDP-α-MSH, membranes from BHK cells stably expressing the human MC4 receptor, read-out: MC4R binding IC50. How it is done: In Vitro ^125I-NDP-α-MSH Binding to Recombinant BHK Cells Stably Expressing the Human MC4 Receptor (SPA Binding Assay).
In order to assess the binding affinity of the selected compounds for the human MC4R, competitive binding assays were performed with radiolabelled NDP-alpha MSH (^125I-NDP-α-MSH) and membranes from BHK cells stably expressing the human MC4 receptor.
as §5
as §6, with “MC4” for “MC1”

For assay [4], the target named is T2, human MC4R. The assay is described as follows: Functional human melanocortin receptor 4 assay (cAMP, HTRF). The assay is classed as cell-based. Conditions: cAMP induction, BHK cells expressing the human MC4 receptor, 30 min, 25° C. How it is done: as §1, §2, §3, §4

Starred links: 1 amine or outer side, 2 acyl side, 3 side chain; linkers in the order of their positions; H or OH if unused. Positions of bridges follow the written chain, without caps; N, C: chain ends. Non-standard residues stand in square brackets, D forms with d. Residues, ends and D or L forms follow the SMILES beside them. dPhe(4-Cl) = N[C@H](Cc1ccc(Cl)cc1)C(=O)O; X1 = NC(N)NCCC[C@@H](N[*:1])C(=O)[*:2]; X3 = NCNCCC[C@@H](N[*:1])C(=O)[*:2]; X2 = NCNCCC[C@H](N[*:1])C(=O)[*:2]; Nle = CCCC[C@H](N)C(=O)O

What is called EC50 is the concentration that produces a half-maximal response. Low values mean a more potent agent, high ones a less potent agent. What is called IC50 is the concentration that inhibits the measured activity by half.

T2 sequence (P32245 whole entry): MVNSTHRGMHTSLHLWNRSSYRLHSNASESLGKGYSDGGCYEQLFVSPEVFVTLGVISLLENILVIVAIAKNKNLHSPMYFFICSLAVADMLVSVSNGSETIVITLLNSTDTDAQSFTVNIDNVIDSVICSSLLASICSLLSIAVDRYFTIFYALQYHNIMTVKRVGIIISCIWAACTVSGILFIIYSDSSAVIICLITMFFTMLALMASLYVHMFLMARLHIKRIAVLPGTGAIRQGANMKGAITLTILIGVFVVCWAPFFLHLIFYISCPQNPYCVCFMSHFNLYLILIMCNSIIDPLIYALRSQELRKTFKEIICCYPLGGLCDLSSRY
T1 sequence (Q01726 whole entry): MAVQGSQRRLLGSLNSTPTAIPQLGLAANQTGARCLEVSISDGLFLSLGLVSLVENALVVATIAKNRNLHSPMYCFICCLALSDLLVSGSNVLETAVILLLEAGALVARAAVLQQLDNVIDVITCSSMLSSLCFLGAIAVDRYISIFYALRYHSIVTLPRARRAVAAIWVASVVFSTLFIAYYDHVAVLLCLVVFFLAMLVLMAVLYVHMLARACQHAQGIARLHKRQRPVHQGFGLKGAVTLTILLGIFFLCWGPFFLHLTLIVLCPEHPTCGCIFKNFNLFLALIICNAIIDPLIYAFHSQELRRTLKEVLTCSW

For the molecule `CCCC[C@H](NC(=O)[C@H](CCC(=O)O)NC(=O)[C@@H](CCCNC(=N)N)NC(=O)[C@@H]1CCCN1C(=O)[C@@H]1CCCN1C(=O)[C@@H]1CSSC[C@H](NC(=O)[C@H](CCCNC(=N)N)NC(C)=O)C(=O)N2CCC[C@H]2C(=O)N[C@@H](Cc2c[nH]cn2)C(=O)N[C@H](Cc2ccccc2)C(=O)N[C@@H](Cc2c[nH]cn2)C(=O)N[C@@H](Cc2c[nH]c3ccccc23)C(=O)N1)C(=O)N[C@H](CCCNC(N)N)C(=O)N[C@H](CCCNC(=N)N)C(N)=O` [Chem. 5, Ac-Arg-c[Cys-Pro-His-D- Phe-His-Trp-Cys]-Pro- Pro-D-Arg-Glu-Nle-D- Arg-D-Arg-NH2] (Ac-RCPH[dF]HWCPP[dR]E[Nle][X1][dR]-NH2; disulfide 2-8), on human MC1R [1], a half-maximal response (EC50) required 172 nM.

As for `CCCC[C@H](NC(=O)[C@H](CCC(=O)O)NC(=O)[C@@H](CCCNC(=N)N)NC(=O)[C@@H]1CCCN1C(=O)[C@@H]1CCCN1C(=O)[C@@H]1CSSC[C@H](NC(=O)[C@H](CCCNC(=N)N)NC(C)=O)C(=O)N2CCC[C@H]2C(=O)N[C@@H](Cc2c[nH]cn2)C(=O)N[C@H](Cc2ccccc2)C(=O)N[C@@H](Cc2c[nH]cn2)C(=O)N[C@@H](Cc2c[nH]c3ccccc23)C(=O)N1)C(=O)N[C@H](CCCNC(N)N)C(=O)N[C@H](CCCNC(=N)N)C(N)=O` [Chem. 6, Ac-D-Arg-c[Cys-Pro-His- D-Phe-His-Trp-Cys]-Pro- Pro-D-Arg-Glu-Nle-D- Arg-D-Arg-NH2] (Ac-RCPH[dF]HWCPP[dR]E[Nle][X1][dR]-NH2; disulfide 2-8), the EC50 stood at 126 nM on human MC1R [1] and 0.32 nM at human MC4R [4]. Also, the values for the IC50 on human MC1R [2] and on human MC4R [3] were 44.1 nM and 0.35 nM, respectively.

Take `CCCC[C@H](NC(=O)[C@H](CCC(=O)O)NC(=O)[C@@H](CCCNC(=N)N)NC(=O)[C@@H]1CCCN1C(=O)[C@@H]1CCCN1C(=O)[C@@H]1CSSC[C@H](NC(C)=O)C(=O)N2CCC[C@H]2C(=O)N[C@@H](Cc2c[nH]cn2)C(=O)N[C@H](Cc2ccc(Cl)cc2)C(=O)N[C@@H](Cc2c[nH]cn2)C(=O)N[C@@H](Cc2c[nH]c3ccccc23)C(=O)N1)C(=O)N[C@H](CCCNCN)C(=O)N[C@H](CCCNC(=N)N)C(N)=O` [Chem. 10, Ac-c[Cys-Pro-His-D-Cl- Phe-His-Trp-Cys]-Pro- Pro-D-Arg-Glu-Nle-D- Arg-D-Arg-NH2] (Ac-CPH[dPhe(4-Cl)]HWCPP[dR]E[Nle][X3][dR]-NH2; disulfide 1-7): at human MC1R [2], the IC50 is 172 nM.

As for `CCCC[C@H](NC(=O)[C@H](CCC(=O)O)NC(=O)[C@@H](CCCNC(=N)N)NC(=O)[C@@H]1CCCN1C(=O)[C@@H]1CCCN1C(=O)[C@@H]1CSSC[C@H](NC(C)=O)C(=O)N2CCC[C@H]2C(=O)N[C@@H](Cc2c[nH]cn2)C(=O)N[C@H](Cc2ccccc2)C(=O)N[C@@H](Cc2c[nH]cn2)C(=O)N[C@@H](Cc2c[nH]c3ccccc23)C(=O)N1)C(=O)N[C@@H](CCCNCN)C(=O)N[C@H](CCCNC(=N)N)C(N)=O` [Chem. 15, Ac-c[Cys-Pro-His-D-Phe- His-Trp-Cys]-Pro-D- Arg-Glu-Nle-Arg-D-Arg- NH2] (Ac-CPH[dF]HWCPP[dR]E[Nle][X2][dR]-NH2; disulfide 1-7), the IC50 on human MC4R [3] stood at 0.88 nM.

On to `CCCC[C@H](NC(=O)[C@H](CCC(=O)O)NC(=O)[C@@H](CCCNC(=N)N)NC(=O)[C@@H]1CCCN1C(=O)[C@@H]1CCCN1C(=O)[C@@H]1CSSC[C@H](NC(C)=O)C(=O)N2CCC[C@H]2C(=O)N[C@@H](Cc2c[nH]cn2)C(=O)N[C@H](Cc2ccccc2)C(=O)N[C@@H](Cc2c[nH]cn2)C(=O)N[C@@H](Cc2c[nH]c3ccccc23)C(=O)N1)C(=O)N[C@H](CCCNC(=N)N)C(=O)N[C@H](CCCNC(=N)N)C(=O)N[C@H](CCCNC(=N)N)C(N)=O` [Chem. 16, Ac-c[Cys-Pro-His-D-Phe- His-Trp-Cys]-Pro-Pro-D- Arg-Glu-Nle-D-Arg-D- Arg-D-Arg-NH2] (Ac-CPH[dF]HWCPP[dR]E[Nle][dR][dR][dR]-NH2; disulfide 1-7), for which the concentration for half-maximal inhibition (IC50) worked out at 138 nM at human MC1R [2] and 0.27 nM on human MC4R [3]. Also, on human MC4R [4], the EC50 came to 0.16 nM.

On to `CC(=O)N[C@H](CCCNC(=N)N)C(=O)N[C@H]1CSSC[C@@H](C(=O)N2CCC[C@H]2C(=O)N2CCC[C@H]2C(=O)N[C@H](CCCNC(=N)N)C(=O)N[C@H](CCCNC(=N)N)C(N)=O)NC(=O)[C@H](Cc2c[nH]c3ccccc23)NC(=O)[C@H](Cc2c[nH]cn2)NC(=O)[C@@H](Cc2ccccc2)NC(=O)[C@H](Cc2c[nH]cn2)NC(=O)[C@@H]2CCCN2C1=O` [Chem. 18, Ac-D-Arg-c[Cys-Pro-His- D-Phe-His-Trp-Cys]-Pro- Pro-D-Arg-D-Arg-NH2] (Ac-[dR]CPH[dF]HWCPP[dR][dR]-NH2; disulfide 2-8), for which the EC50 was 179 nM on human MC1R [1] and 0.19 nM at human MC4R [4]. Also, the IC50 on human MC1R [2] stood at 69 nM; at human MC4R [3], 0.39 nM.
